Results as given in US7309497B2, “Injectable pharmaceutical composition for systematic administration of pharmacologically active ingredients” (Schwarz Pharma AG, priority 2000, dated 2007).
Like-named read-outs stand apart in the source and are kept apart here.

Key:
[1] = in vivo; cited from earlier work
[2] = in vivo; cited from earlier work; remark: listed apart in the source
[3] = distinct first-pass effect; cited from earlier work
[4] = subcutaneous administration; tests with animals; cited from earlier work
[5] = Bioavailability and release of N-0923 from the depot composition per the invention; type: in vivo
Text: The composition according to the invention is particularly preferred for the administration of N-0923 hydrochloride, and especially so in a formulation with crystalline N-0923 hydrochloride. The latter can be produced for instance as described in U.S. Pat. No. 4,564,628.

[6] = intravenously injected aqueous solutions; tests with animals; cited from earlier work
[7] = cited from earlier work

In the case of proinsulin C-peptide, the half-time value [1] is listed as “about 30 minutes”.
In the case of `O=c1[nH]cc(F)c(=O)[nH]1` [5-fluorouracil], the half-time value [2] is listed as 10 to 20 min.
For `CCCN(CCc1cccs1)[C@H]1CCc2c(O)cccc2C1` [N-0923, S(−)-2-(N-propyl-N-2-thienylerhyl-amino)-5-hyroxytetralin], the “bioavailability after oral administration” value [3] is given as “about 0.5%”, the half-time value [4] is given as 60 to 70 min and the “relationship of plasma agent levels to the dose introduced in the body” value ([5]; depot composition) is given as “linear relationship”. For the same compound, the “time over which the active agent is released from the depots in the body in a therapeutically effective amount” value ([5]; depot composition) was “over 48 hours”, the bioavailability ([5]; plasma, depot composition with N-0923, read-out: bioavailability of the pharmaceutical composition per the invention) was ~70% and the half-time value [6] was 52 min.
For `N[C@@H](Cc1ccc(O)c(O)c1)C(=O)O` [levodopa], the “half-time in the plasma” value [7] is given as 1 to 3 h.
